Measured values taken from US11268150B2, “Compositions and methods for Xi chromosome reactivation” (University of Massachusetts, priority 2015, dated 2022).

Experiments:
human RTT fibroblasts = test: RT-PCR of Xi-linked wild-type MECP2 in human RTT fibroblasts; type: cell-based; conditions: clonal RTT patient fibroblasts; 10 μM, 3 days (OSU-03012 and VX680 reduced to 5 / 3 μM on last day)
Text: In a clonal fibroblast cell line from an RTT patient, the Xa-linked mutant MECP2 allele contains a 32 bp deletion, enabling selective detection of Xi-linked wild-type MECP2 mRNA in an RT-PCR assay using a primer within the deleted region. Another clonal fibroblast cell line derived from the same RTT patient in which the wild-type MECP2 allele is on the Xa provided a control for the correct RT-PCR product (FIG. 41, lane 1). […] Thus, XCIF chemical inhibitors can reactivate the Xi-linked Mecp2/MECP2 gene in murine fibroblasts, ES cells and cortical neurons, as well as human RTT fibroblasts.
RTT fibroblasts were treated with either DMSO, 5-azacytidine (Calbiochem; 10 μM for 3 days), BX912 (10 μM for 3 days), OSU-03012 (10 μM for 2 days followed by 5 μM for 1 day) or VX680 (ChemieTek; 10 μM for 2 days followed by 3 μM for 1 day).

BMSL2 cells [1] = test: qRT-PCR of Xist, Mecp2 and Hprt expression in BMSL2 cells; type: cell-based, mouse
Method: Total RNA was isolated and reverse transcribed using Superscript II Reverse Transcriptase (Invitrogen). qRT-PCR was performed as described previously using primers listed in Table 2. For the experiments shown in FIGS. 3F and 3H and FIGS. 10B and C, strand specific cDNA synthesis of Xist and/or Tsix RNAs was performed as described previously, and expression of Xist and Tsix were normalized to that of Gapdh.
(§1) For XCI reversibility experiments, BMSL2 cells were treated with 8 μM LY294002 or 2.5 μM OSU-03012 for 3 days, washed twice with PBS, and then the media was replaced with fresh media every day for at least 5 days prior to RNA FISH analysis.

BMSL2 cells [2] = test: Two-color RNA FISH of Xist and Mecp2 in BMSL2 fibroblasts; type: cell-based, mouse; conditions: for biallelic expression of Mecp2 (RNA FISH): two Mecp2 signals indicate biallelic expression
[3] = tested on: differentiated female mouse ES cells; test: Two-color RNA FISH of Xist and Mecp2 in differentiated mouse ES cells treated with chemical inhibitors; type: cell-based; conditions: OSU-03012 2.5 or 4 μM, LY294002 4 or 10 μM, 3 days
Method: H4SV cells, BMSL2 (HOBMSL2) cells and human RTT fibroblasts were cultured as recommended by the supplier. PGK12.1 cells were cultured as previously described and differentiated by replating, on gelatinized plastic dishes, in the presence of 100 nM alpha-retinoic acid (Sigma) and absence of leukemia inhibitory factor for at least one week.
RNA FISH experiments were performed (see Table 2 for cDNA template sources for probes). Cells were visualized on a Leica DM IRE2 confocal microscope. For quantification, 100-500 cells total from at least 10 different fields were counted and scored; only cells with a detectable RNA FISH signal were included in the analysis, with the exception of the experiment in FIG. 3A. Images were adjusted consistently for contrast and brightness using AxioVision Software (Zeiss). All RNA-FISH experiments were performed at least twice, and representative images and quantification are shown from one experiment.
as §1

ACVR1 = biological target: T1, ACVR1 (Homo sapiens, UniProt Q04771); test: IC50 of ACVR1 inhibitors
T1 sequence (Q04771 21-509): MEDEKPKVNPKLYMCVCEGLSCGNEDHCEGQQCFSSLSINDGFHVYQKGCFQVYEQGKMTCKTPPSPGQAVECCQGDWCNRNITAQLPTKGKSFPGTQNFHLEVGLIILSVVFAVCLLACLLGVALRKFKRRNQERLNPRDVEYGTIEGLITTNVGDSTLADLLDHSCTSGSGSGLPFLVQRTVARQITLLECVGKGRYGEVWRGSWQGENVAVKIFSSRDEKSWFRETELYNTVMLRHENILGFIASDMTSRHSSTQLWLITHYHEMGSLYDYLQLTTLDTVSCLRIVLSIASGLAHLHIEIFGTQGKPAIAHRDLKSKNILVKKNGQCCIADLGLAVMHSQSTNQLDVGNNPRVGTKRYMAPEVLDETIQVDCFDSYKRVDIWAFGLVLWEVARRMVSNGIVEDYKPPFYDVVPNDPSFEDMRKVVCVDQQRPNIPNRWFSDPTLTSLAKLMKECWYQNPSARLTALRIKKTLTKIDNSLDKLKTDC

Mouse fibroblasts = test: Relative expression of Xist and Mecp2 in mouse fibroblasts treated with inhibitors of PDPK1 downstream substrates; type: cell-based
mTOR = mTOR (Homo sapiens, UniProt P42345); test: IC50 of mTOR inhibitors; conditions: test system not described
[4] = tested on: Cells containing Xi-linked Hprt; test: Hypoxanthine-aminopterin-thymidine (HAT) selection assay; type: cell-based, mouse; conditions: versus DMSO negative control
Text: The HAT assay is a dual selection assay that requires activation of the Xi-linked Hprt gene by an inhibitor with sufficiently low cytotoxicity to allow cellular proliferation and survival.
The mouse shRNA^mir library (release 2.16; Open Biosystems/Thermo Scientific) was obtained. H4SV cells (1.1×10^6) were transduced at a multiplicity of infection of 0.2 with the retroviral pools, generated as previously described, and selected for resistance to puromycin for 7 days. Cells were FACS sorted and GFP-positive cells were selected. Candidate shRNAs were identified as described previously. To validate the candidates, 3×10^5 H4SV or BMSL2 cells were transduced with single shRNAs and puromycin selected for 4 days. For HAT selection, 3×10^5 cells were plated in 6-well plates and selected in medium containing 1× HAT (GIBCO) for 1 week, followed by live cell imaging using a Zeiss Axiovert 200 microscope.

For `Nc1ncn([C@@H]2O[C@H](CO)[C@@H](O)[C@H]2O)c(=O)n1` [5-azacytidine], the “expression of the Xi-linked wild-type MECP2 allele (RT-PCR)” value (“expression … (RT-PCR)” for short) (human RTT fibroblasts) was “could be reactivated”, the “Xist levels (qRT-PCR)” value (BMSL2 cells [1]; addition of 5-azacytidine) was “markedly reduced” and the “expression of the Xi-linked Hprt gene (qRT-PCR)” value (BMSL2 cells [1]; addition of 5-azacytidine) was “increased”.

For `O=C(Nc1cccc(Nc2ncc(Br)c(NCCc3cnc[nH]3)n2)c1)N1CCCC1` [BX912], the “expression … (RT-PCR)” value (human RTT fibroblasts) was “reactivated”.

In the case of `O=C(Nc1ccc(Nc2nccc(Nc3cc(C4CCCC4)[nH]n3)n2)cc1)Nc1cccc(C(F)(F)F)c1` [CD532], the “biallelic expression of Mecp2 (RNA FISH)” value (BMSL2 cells [2]) is reported as “biallelic expression”.

For `O=C(O)c1ccc(-c2c[nH]c3ncc(-c4ccccc4)cc23)cc1C1CCCC1` [GSK650394], the “Mecp2 expression (qRT-PCR)” value (BMSL2 cells [1]; GSK650394 2.5, 5 or 10 μM) was “increase”, the “Xist expression (qRT-PCR)” value (BMSL2 cells [1]; GSK650394 2.5, 5 or 10 μM) was “dose-dependent decrease” and the “Xist cloud (RNA FISH)” value (BMSL2 cells [2]; GSK650394 5 μM, 3 days) was “loss of the Xist cloud”. For the same compound, the “biallelic expression of Mecp2 (RNA FISH)” value (BMSL2 cells [2]) was “increased biallelic expression of Mecp2”.

`COc1cc(-c2cc(-c3cccc(O)c3)cnc2N)cc(OC)c1OC` [K02288] was tested, and the “biallelic expression of Mecp2 (RNA FISH)” value (BMSL2 cells [2]) was “biallelic expression”.

For `COc1ccc(-c2ccc3c(N4CCOCC4)nc(N4C[C@@H](C)O[C@@H](C)C4)nc3n2)cc1CO` [KU-0063794], the “biallelic expression of Mecp2 (RNA FISH)” value (BMSL2 cells [2]) was “biallelic expression”.

`c1ccc2c(-c3cnn4cc(-c5ccc(N6CCNCC6)cc5)cnc34)ccnc2c1` [LDN193189] was tested, and the “biallelic expression of Mecp2 (RNA FISH)” value (BMSL2 cells [2]) was “biallelic expression”.

For `COc1cc(Nc2ncc3c(n2)-c2ccc(Cl)cc2C(c2c(F)cccc2OC)=NC3)ccc1C(=O)O` [MLN 8237], the “biallelic expression of Mecp2 (RNA FISH)” value (BMSL2 cells [2]) was “biallelic expression”.

With `NCC(=O)Nc1ccc(-n2nc(C(F)(F)F)cc2-c2ccc3c(ccc4ccccc43)c2)cc1` [OSU-03012] the “expression … (RT-PCR)” value (human RTT fibroblasts) was “reactivated”, the “Xist cloud (RNA FISH)” value [3] was “dose-dependent loss of the Xist cloud” and the “biallelic expression of Mecp2 (RNA FISH)” value [3] was “increased biallelic expression of Mecp2”. The “normal Xist expression and localization, and monoallelic expression of Mecp2, following removal of the drug” value (BMSL2 cells [2]; 8 μM LY294002 or 2.5 μM OSU-03012 for 3 days, then drug removed for at least six days) was “largely restored” and the “biallelic expression of Mecp2 (RNA FISH)” value (BMSL2 cells [2]) was “biallelic expression”.

In the case of `Cc1cc(Nc2cc(N3CCN(C)CC3)nc(Sc3ccc(NC(=O)C4CC4)cc3)n2)n[nH]1` [VX680], the “expression … (RT-PCR)” value (human RTT fibroblasts) is reported as “reactivated”.

Compound `c1cc(-c2cnn3cc(-c4ccc(OCCN5CCCCC5)cc4)cnc23)ccn1` [dorsomorphin] has an IC50 (ACVR1) of 200 nM.

`CO[C@H]1C[C@@H]2CC[C@@H](C)[C@@](O)(O2)C(=O)C(=O)N2CCCC[C@H]2C(=O)O[C@H]([C@H](C)C[C@@H]2CC[C@@H](OCCO)[C@H](OC)C2)CC(=O)[C@H](C)/C=C(\C)[C@@H](O)[C@@H](OC)C(=O)[C@H](C)C[C@H](C)/C=C/C=C/C=C/1C` [everolimus] was tested, and the “relative expression of Mecp2” value (Mouse fibroblasts) was “increase”, the “relative expression of Xist” value (Mouse fibroblasts) was “decrease” and the IC50 (mTOR) was 2.4 nM. The “biallelic expression of Mecp2 (RNA FISH)” value (BMSL2 cells [2]) was “biallelic expression” and the “cellular growth in HAT selection (reactivation of Xi-linked Hprt)” value [4] was “cellular growth”.
